Values of other authors in patent publication US6344215B1, “Methylphenidate modified release formulations” (Eurand America, Inc., priority 2000, dated 2002).
Where a name gives a salt, the structure may show the parent alone.

Conditions: gastrointestinal tract

## COC(=O)C(c1ccccc1)C1CCCCN1 (stereo not shown) [Methylphenidate Hydrochloride]
  absorption: well absorbed throughout the gastrointestinal tract
